How the values were obtained:
[1] = system: hES-MSCs; assay: CFU-F assay of FreSH-Tracer-sorted hES-MSCs; type: cell-based, human
Protocol: Main factors for determining the therapeutic efficacy of hBM-MSCs, namely a colony forming unit-fibroblast (CFU-F) and a graft survival rate, were evaluated in cell culture models.
In order to test whether direct control of a GSH level in stem cells leads to change in cell functions, hES-MSCs sorted by FreSH-Tracer were treated with buthionine sulfoximine (BSO; glutathione synthesis inhibitor) and glutathione ethyl ester (GSH-EE). When GSH was decreased in cells by treating GSH^High cells with BSO (80 μM, 24 h), it was confirmed that CFU-F increased, and on the other hand, when GSH was increased by treating GSH^Low cells with GSH-EE (1 mM, 2 h), it was confirmed that CFU-F decreased (FIG. 13A). In addition, it was confirmed that, when hES-MSCs which were not sorted by FreSH-Tracer were treated with BSO or GSH-EE, PDGF-AA-induced cell migration capacity was decreased or increased, respectively (FIG. 13B).

[2] = system: T cells; assay: Anti-inflammatory effect of treated hUC-MSCs on T cells; type: cell-based; settings: hUC-MSCs treated with 1 μM ferrostatin-1 24 h, 0.2 mM GGC 2 h, 2 mM GSH-EE 2 h
Protocol: The inventors observed an effect of the material on stem cells by treating each stem cells with a material for enhancing a glutathione evaluation parameter. When hUC-MSCs were subcultured in a L-AA2G-containing medium, CFU-F, migration capacity, and an anti-inflammatory effect were observed. A CFU-F assay (n=3) was performed by treating hUC-MSCs with 125 or 250 μg/mL of AA2G for three days. As shown in FIGS. 16A and 16B, it was confirmed that, when AA2G was treated, CFU-F increased. In addition, as hUC-MSCs were treated with 125 or 250 μg/mL of AA2G for three days, PDGF-AA-induced migration capacity (n=3) was analyzed. As shown in FIGS. 17A and 17B, it was confirmed that the migration capacity was increased by AA2G treatment. In addition, the reduction in T cell proliferation, the reduction in T cell differentiation, and the promotion of Treg cell differentiation were observed by treating hUC-MSCs with 125 or 250 μg/mL of AA2G for three days.
In addition, hUC-MSCs were cultured with ferrostatin-1 (0.2, 1, 2 and 4 μM) and liproxstatin-1 (0.1, 0.5, 1 and 2 μM), which control a glutathione level in cells by inhibiting lipid oxidation. […] Meanwhile, the hUC-MSCs were treated with 1 μM ferrostatin-1 for 24 hours, 0.2 mM GGC for 2 hours, and 2 mM GSH-EE for 2 hours. As a result, the reduction in T cell proliferation ability and the reduction in T cell differentiation capacity were observed, and promotion of Treg cell differentiation was observed.

Row | Structure (SMILES) | CFU-F ([1]; GSH^High hES-MSCs treated with BSO 80 μM, 24 h) | CFU-F ([1]; GSH^Low hES-MSCs treated with GSH-EE 1 mM, 2 h) | T cell differentiation capacity [2] | T cell proliferation ability [2] | Treg cell differentiation [2]
1 | CCCCS(=N)(=O)CCC(N)C(=O)O (centres unmarked) [BSO, buthionine sulfoximine] | increased | – | – | – | –
2 | CCOC(=O)CNC(=O)[C@H](CS)NC(=O)CC[C@H](N)C(=O)O [GSH-EE, glutathione ethyl ester] | – | decreased | reduction | reduction | promotion
